Tests used:
[1] = test system: BH4 production in human peripheral blood mononuclear cells (PBMCs); assay: hPBMC assay, inhibition of BH4 production by LC-MS (anti-CD3/anti-CD28 stimulated); format: cell-based; settings: PBMC, read-out: hPBMC IC50
[2] = target: SNAP-hSPR (sepiapterin reductase, SPR) (Homo sapiens, UniProt P35270); assay: biochemical; format: binding; settings: terbium labelled SNAP-hSPR / SSZ labelled SNAP-EGFP; read-out: hTR-FRET IC50
[3] = test system: BH4 levels in SK-N-BE (2) cells; assay: SKN-N-BE (2) cellular assay, BH4 levels by LC-MS; format: cell-based; settings: Homo sapiens, SKNBE2, read-out: SK-N-BE(2) IC50, SK-N-BE (2) cells, BH4 levels by LC-MS

SNAP-hSPR (sepiapterin reductase, SPR), sequence (P35270 whole entry): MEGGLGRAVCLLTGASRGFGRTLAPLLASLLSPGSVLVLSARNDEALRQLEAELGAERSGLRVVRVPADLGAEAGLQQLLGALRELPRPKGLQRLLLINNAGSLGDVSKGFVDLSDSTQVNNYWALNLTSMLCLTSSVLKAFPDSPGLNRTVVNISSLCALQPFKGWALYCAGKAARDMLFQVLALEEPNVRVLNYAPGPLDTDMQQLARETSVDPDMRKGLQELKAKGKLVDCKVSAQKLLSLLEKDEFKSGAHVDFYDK

SMILES | IC50 [1] | IC50 [2] | IC50 [3]
O=C(c1cnn(-c2nc3c(c(=O)[nH]2)COC3)c1)N1CCC(C(F)(F)F)CC1 [Q-0453, 2-{4-[4-(trifluoromethyL)piperidine-1-carbonyl]-1H-pyrazol-1-yl}-3H,4H,5H,7H-furo[3,4-d]pyrimidin-4-one] | 1300 nM | 6 nM | 1600 nM
O=C(c1cnn(-c2nn3cccc3c(=O)[nH]2)c1)N1CCC(C(F)(F)F)CC1 [Q-0467, 2-{4-[4-(trifluoromethyl)piperidine-1-carbonyl]-1H-pyrazol-1-yl}-3H,4H-pyrrolo[2,1f][1,2,4]triazin-4-one] | 100 nM | 2 nM | 82 nM
Cc1c(C(=O)N2CCC(C)(C#N)CC2)cnn1-c1nc2c(c(=O)[nH]1)CCC2 [Q-0518] | 32 nM | 3 nM | 500 nM
CCC1(C#N)CCN(C(=O)c2cnn(-c3nc4c(c(=O)[nH]3)CCC4)c2C)CC1 [Q-0519] | 120 nM | 3 nM | 53 nM
O=C(c1cnn(-c2nn3c(F)ccc3c(=O)[nH]2)c1)N1CCC(C(F)(F)F)CC1 [Q-0525, 7-fluoro-2-(4-(4-(trifluoromethyl)piperidine-1-carbonyl)-1H-pyrazol-1-yl)pyrrolo[1,2-f][1,2,4]triazin-4(3H)-one] | 24 nM | 1 nM | 19 nM
Cc1c(C(=O)N2CC[C@@H](N(C)C(=O)OC(C)(C)C)C2)cnn1-c1nc2c(c(=O)[nH]1)CCC2 [Q-0571] | 67 nM | 3 nM | 73 nM
CCC(C#N)C1CCN(C(=O)c2cnn(-c3nc4c(c(=O)[nH]3)CCC4)c2C)CC1 (stereo not drawn) [Q-0572] | 24 nM | 2 nM | 36 nM
CCC1(C#N)CCN(C(=O)c2cnn(-c3nn4cccc4c(=O)[nH]3)c2C)CC1 [Q-0586] | 130 nM | 2 nM | 200 nM
Cc1c(C(=O)N2CCC(S(=O)(=O)c3ccc(F)c(F)c3)CC2)cnn1-c1nn2cccc2c(=O)[nH]1 [Q-0591] | 45 nM | 3 nM | 100 nM
Cc1c(C(=O)N2CCC3(CC2)CC3)cnn1-c1nc2c(c(=O)[nH]1)CCC2 [Q-0635] | 54 nM | 2 nM | 100 nM
Cc1c(C(=O)N2CCC3(CC2)CC(F)(F)C3)cnn1-c1nn2cccc2c(=O)[nH]1 [Q-0690] | 72 nM | 2 nM | 200 nM
Cc1c(C(=O)N2CCN3CCC[C@@H]3C2)cnn1-c1nn2cccc2c(=O)[nH]1 [Q-0693] | 450 nM | 3 nM | 800 nM
O=C(c1cnn(-c2nn3cccc3c(=O)[nH]2)c1)N1CCN2CCC[C@@H]2C1 [Q-0703] | 190 nM | 4 nM | 600 nM
Cc1c(C(=O)N2CCC(C(O)(C(F)(F)F)C(F)(F)F)CC2)cnn1-c1nn2cccc2c(=O)[nH]1 [Q-0721] | 26 nM | 1 nM | 35 nM
Cc1c(C(=O)N2CCN(CC(F)(F)F)CC2)cnn1-c1nc2c(c(=O)[nH]1)CCC2 [Q-0737] | 37 nM | 5 nM | 200 nM
Cc1c(C(=O)N2CCN(C(=O)OC(C)(C)C)CC2)cnn1-c1nn2cccc2c(=O)[nH]1 [Q-0750] | 180 nM | 3 nM | 500 nM
Cc1c(C(=O)N2CCN(CC(F)(F)F)CC2)cnn1-c1nn2cccc2c(=O)[nH]1 [Q-0760] | 75 nM | 1 nM | 400 nM
Cc1c(C(=O)N2CCC3(CC2)CC3(F)F)cnn1-c1nn2cccc2c(=O)[nH]1 [Q-0761] | 140 nM | 2 nM | 200 nM
Cc1c(C(=O)N2CCN(C3CC3)CC2)cnn1-c1nn2cccc2c(=O)[nH]1 [Q-0764] | 100 nM | 2 nM | 300 nM
Cc1c(C(=O)N2CCC3(CC2)CN(C(=O)OC(C)(C)C)C3)cnn1-c1nn2cccc2c(=O)[nH]1 [Q-0768] | 45 nM | 2 nM | 200 nM

SMILES | IC50 [1] | IC50 [2] | IC50 [3]
Cc1c(C(=O)N2CC3(CCN(C(=O)OC(C)(C)C)CC3)C2)cnn1-c1nn2cccc2c(=O)[nH]1 [Q-0772] | 72 nM | 1 nM | 200 nM
CCC1(C#N)CCN(C(=O)c2nnn(-c3nn4cccc4c(=O)[nH]3)c2C)CC1 [Q-0777] | 55 nM | 1 nM | 300 nM
Cc1c(C(=O)N2CCC(C(C)(O)C(F)(F)F)CC2)cnn1-c1nn2cccc2c(=O)[nH]1 (stereo not drawn) [Q-0782] | 38 nM | 1 nM | 100 nM
Cc1c(C(=O)N2CCC(OCC(F)(F)F)CC2)cnn1-c1nn2cccc2c(=O)[nH]1 [Q-0784] | 120 nM | 1 nM | 300 nM
Cc1c(C(=O)N2CC(F)(F)C2)cnn1-c1nn2cccc2c(=O)[nH]1 [Q-0789] | 440 nM | 8 nM | 2500 nM
Cc1c(C(=O)N2CCC2)cnn1-c1nn2cccc2c(=O)[nH]1 [Q-0794] | 410 nM | 10 nM | 3500 nM
Cc1c(C(=O)N2C3CCC2CC(O)(c2ccccc2)C3)cnn1-c1nn2cccc2c(=O)[nH]1 (stereo not drawn) [Q-0797] | 27 nM | 1 nM | 100 nM
Cc1c(C(=O)N2CCC(C)(C#N)CC2)cnn1-c1nn2cccc2c(=O)[nH]1 [Q-0800] | 47 nM | 2 nM | 600 nM
Cc1c(C(=O)N2CC3CC(F)(F)C3C2)cnn1-c1nn2cccc2c(=O)[nH]1 (stereo not drawn) [Q-0804] | 94 nM | 1 nM | 300 nM
Cc1c(C(=O)N2CC(N3CCC(F)(F)C3)C2)cnn1-c1nn2cccc2c(=O)[nH]1 [Q-0812] | 150 nM | 3 nM | 1000 nM
Cc1c(C(=O)N2CC3(CCCC3)C2)cnn1-c1nn2cccc2c(=O)[nH]1 [Q-0813] | 65 nM | 1 nM | 100 nM
Cc1c(C(=O)N2CCC(O)(C3CC3)CC2)cnn1-c1nn2cccc2c(=O)[nH]1 [Q-0815] | 72 nM | 1 nM | 100 nM
Cc1c(C(=O)N2CC3(C2)CC(F)(F)C3)cnn1-c1nn2cccc2c(=O)[nH]1 [Q-0816] | 170 nM | 1 nM | 600 nM
Cc1c(C(=O)N2CCC(C3(C#N)CC3)CC2)cnn1-c1nn2cccc2c(=O)[nH]1 [Q-0817] | 44 nM | 1 nM | 200 nM
Cc1c(C(=O)N2CCN(C3CCC3)CC2)cnn1-c1nn2cccc2c(=O)[nH]1 [Q-0821] | 51 nM | 1 nM | 100 nM
Cc1c(C(=O)N2CC3(CSC3)C2)cnn1-c1nn2cccc2c(=O)[nH]1 [Q-0822] | 130 nM | 2 nM | 400 nM
Cc1c(C(=O)N2CCC(CC#N)CC2)cnn1-c1nn2cccc2c(=O)[nH]1 [Q-0825] | 150 nM | 2 nM | 400 nM
Cc1c(C(=O)N2CCN(c3ccc(Cl)cn3)CC2)cnn1-c1nn2cccc2c(=O)[nH]1 [Q-0835] | 39 nM | 2 nM | 100 nM
Cc1c(C(=O)N2CCN(c3ccc(C(F)(F)F)cn3)CC2)cnn1-c1nn2cccc2c(=O)[nH]1 [Q-0836] | 52 nM | 5 nM | 300 nM
Cc1c(C(=O)N2CC3CCC(C2)C3(O)C(F)(F)F)cnn1-c1nn2cccc2c(=O)[nH]1 (stereo not drawn) [Q-0837] | 63 nM | 1 nM | 200 nM
